In paper PMC6267684, “Pharmacokinetic evaluation of the PNC disassembler metarrestin in wild-type and Pdx1-Cre;LSL-Kras^G12D/+;Tp53^R172H/+ (KPC) mice, a genetically engineered model of pancreatic cancer” (Cancer Chemotherapy and Pharmacology, 2018):

How the values were obtained:
cleaved caspase 3 = assay: Cleaved caspase 3 immunohistochemistry in KPC tumors; type: in vivo, KPC mice; details: 25 mg/kg by gavage (PO) for 14 days
Description: To arrive at markers driven by metarrestin exposure, we next subjected untreated and metarrestin-treated KPC tumors and matched normal pancreata to unbiased gene expression profiling using RNA-sEq. […] Thus, FOXA1 and FOXO6 may provide leads for future predictive biomarker development, assist in determination of the minimally efficacious dose, and add additional insight into the mechanism of action of metarrestin.
Suppl. Fig. 7. […] Nuclear cleaved caspase 3 expression levels in metarrestin-treated KPC tumors. Representative images of cleaved caspase 3 immunohistochemistry in tumors of KPC mice treated with vehicle (top) or 25mg/kg metarrestin for 14 days (bottom). Images 20×, inset 40×.

FOXA1 mRNA = FOXA1 mRNA expression in KPC tumors (RNA-seq, qRT-PCR); type: in vivo, KPC mice; details: vs intratumor exposure
Protocol: Pancreas cancer tissues samples or adjacent, uninvolved normal pancreas from vehicle or metarrestin-treated KPC animals collected at 0, 3, and 9 h after last dose of 25 mg/kg metarrestin were homogenized in PureLink Lysis Buffer (PureLink RNA Mini Kit, ThermoFisher Scientific Waltham, MA) at 4 °C using a TissueLyser II bead mill (Qiagen, Valencia, CA, manufactured by Retsch, Newtown, PA). Total RNA was isolated using the Life Technologies PureLink® RNA Mini Kit, quantified on a NanoDrop 1000 spectrophotometer (ThermoFisher Scientific, Waltham, MA). […]
Total RNA libraries were prepared using the Illumina TruSeq® Stranded Total RNA LT (with Ribo-Zero™Human/Mouse/Rat) kit according the manufacturer’s instructions. […] Sequencing output ranged from 89 to 132 million reads per sample. Adapter trimming and base filtering was done using Trimmomatic software version 0.3, and the trimmed reads were aligned to mouse reference genome (GRCm38/mm10) and Ensembl annotation (version 70) using TopHat2 version 2.0.8.
A total of 450 ng of total RNA was used for single-strand complementary DNA synthesis using a SuperScript III First-Strand kit (Invitrogen, Carlsbad, CA). […] Reaction products were read in a Bio-Rad CFX96 Touch real-time PCR detection system (Bio-Rad Laboratories, Hercules, CA). […]

**Q.** What does the source list for `N=c1c2c(-c3ccccc3)c(-c3ccccc3)n(Cc3ccccc3)c2ncn1[C@H]1CC[C@H](O)CC1` [metarrestin, Trans-4-(7-benzyl-4-imino-5,6-diphenyl-4,7-dihydro-3H-pyrrolo[2,3-d]pyrimidin-3-yl) cyclohexanol]?
**A.** cell death in KPC tumors (nuclear cleaved caspase 3) (cleaved caspase 3): does not induce cell death; FOXA1 mRNA expression in KPC tumors (FOXA1 mRNA): Dose-dependent normalization
